Data reported in PubChem BioAssay (NCI).
“And” between values parts separate entries of the source, which are not always exact repeats. Identical values can stand only once.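 1) Cells in 96-well plates. 2) Compound, 48 h, 5 concentrations. 3) Linear interpolation between surrounding doses. 4) Unreached endpoint = highest concentration. Here, GI50 denotes the concentration required for 50% inhibition of growth. Definition used: TGI = concentration required for complete inhibition of growth.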

What was measured:
Assay in all cases: NCI tumour cell line growth inhibition, 48 h
DLD-1 colon = tested on: DLD-1 colon
HOP-18 NSCLC = tested on: HOP-18 NSCLC
DMS 273 small cell lung = tested on: DMS 273 small cell lung
SNB-78 CNS = tested on: SNB-78 CNS
XF 498 CNS = tested on: XF 498 CNS
M19-MEL melanoma = tested on: M19-MEL melanoma
MDA-N = tested on: MDA-N
KM20L2 colon = tested on: KM20L2 colon
RXF-631 renal = tested on: RXF-631 renal
SN12K1 renal = tested on: SN12K1 renal
P388 leukemia = tested on: P388 leukemia

| Structure (SMILES) | TGI (DLD-1 colon) | TGI (HOP-18 NSCLC) | TGI (DMS 273 small cell lung) | TGI (SNB-78 CNS) | TGI (XF 498 CNS) | TGI (M19-MEL melanoma) | TGI (KM20L2 colon) | TGI (RXF-631 renal) | further results |
| --- | --- | --- | --- | --- | --- | --- | --- | --- | --- |
| N#CC(C(=O)CCC(=O)C(C#N)c1ccccc1)c1ccccc1 (centres undefined) | > 100 µM | > 100 µM | > 100 µM | > 100 µM | > 100 µM | > 100 µM | – | – | – |
| CCOC(=O)c1[nH]c(Br)c(-c2ccc(Br)cc2)c1Br | – | – | – | – | – | – | – | – | GI50 (MDA-N): 0.0979 µM; TGI (MDA-N): 0.505 µM and 0.273 µM |
| O=C(CC1(O)C(=O)Nc2c(Cl)ccc(Cl)c21)c1ccc2ccccc2c1 (centres undefined) | 59 µM | 37.2 µM | > 100 µM | 46.3 µM | 25.4 µM | 7.82 µM | 62.1 µM | – | – |
| Clc1cc(Cc2cc(Cl)c(Cl)c3c2OCOC3)c2c(c1Cl)COCO2 | > 100 µM | 97.9 µM | > 100 µM | > 100 µM | – | > 100 µM | > 100 µM | – | – |
| CN(C(=O)C12C3C4C1C1C4(C(=O)C45C6C7C4C4C5C6C74C)C3C12C)C(C)(C)C (centres undefined) | > 100 µM | – | > 100 µM | > 100 µM | > 100 µM | > 100 µM | 85.3 µM | > 100 µM | – |
| CC1(c2cccc3ccccc23)OC(=O)c2ccccc21 (centres undefined) | 75.2 µM | – | 28.6 µM | > 100 µM | 45.2 µM | 51.3 µM | 35.7 µM | 70.7 µM | – |
| CCOC(=O)N1CCc2cc(OC)c(OC)c3c2c1cc1cc(OC)c(OC)cc13 | > 100 µM | > 100 µM | > 45.2 µM | > 100 µM | 69 µM | > 100 µM | 7.16 µM | 66 µM | TGI (MDA-N): 0.599 µM |
| O=C(CO)CC(=O)C(=O)Nc1ccccc1 | > 100 µM | > 100 µM | > 100 µM | > 100 µM | – | > 100 µM | > 100 µM | > 100 µM | – |
| CC(=O)[CH-]C(=O)c1ccccc1.CC(=O)[CH-]C(=O)c1ccccc1.[Eu+3].[OH-].[OH3+] | – | > 100 µM | – | – | – | > 100 µM | > 100 µM | – | GI50 (HOP-18 NSCLC): > 100 µM; GI50 (KM20L2 colon): > 100 µM; GI50 (M19-MEL melanoma): > 100 µM |
| O=C1NC(=O)C2C(=O)NC(=O)C1C2(c1ccccc1)c1cc[nH]c1 (centres undefined) | > 100 µM | – | > 100 µM | > 100 µM | > 100 µM | > 100 µM | – | – | – |
| CCC1(c2c(F)c(F)c(N)c(F)c2F)CCC(=O)NC1=O (centres undefined) | > 100 µM | > 100 µM | > 100 µM | > 100 µM | > 100 µM | > 100 µM | – | – | – |
| CC(=O)OC[C@]1(O)CC[C@@]23CC1C[C@@H]2CCC1C(C)(C)CCC[C@@]13C (some centres undefined) | 28.8 µM | – | 12.7 µM | 32.7 µM | 27.2 µM | 29.4 µM | 31.7 µM | 27.3 µM | – |
| CCOc1ccccc1NC(=O)CC1SC(=Nc2ccc([N+](=O)[O-])cc2)NC1=O (centres undefined) | 59 µM | 51.1 µM | – | > 100 µM | 32.4 µM | 64.4 µM | 42.2 µM | – | – |
| Cc1cc2nc(CCC(=O)O)c(=O)[nH]c2cc1C | > 100 µM | > 100 µM | – | > 100 µM | > 100 µM | > 100 µM | > 100 µM | > 100 µM | – |
| COc1c(OC)c(OC)c2c(c1OC)c(=O)c1ccccc1n2C | – | – | – | – | – | – | – | – | TGI (MDA-N): > 100 µM |
| CC(=O)[C@@]1(O)CC[C@H]2[C@@H]3C[C@H](C)C4=CC(=O)CC[C@]4(C)[C@H]3[C@@H](O)C[C@@]21C | – | – | – | – | – | – | – | – | TGI (MDA-N): > 100 µM |
| O=NNc1ccc(S(=O)(=O)c2ccccc2)cn1 | – | – | – | – | – | – | – | – | TGI (MDA-N): > 100 µM |
| N[C@@H]1CCCC[C@H]1N.O=C([O-])C(=O)[O-].[Pt+4] | > 100 µM | > 100 µM | – | > 100 µM | – | > 100 µM | 24.2 µM | – | GI50 (DLD-1 colon): 3.46 µM; GI50 (HOP-18 NSCLC): 34.3 µM; GI50 (KM20L2 colon): 0.263 µM; GI50 (SNB-78 CNS): 19.8 µM; GI50 (M19-MEL melanoma): 1.18 µM |

| Structure (SMILES) | TGI (DLD-1 colon) | TGI (HOP-18 NSCLC) | TGI (DMS 273 small cell lung) | TGI (SNB-78 CNS) | TGI (XF 498 CNS) | TGI (M19-MEL melanoma) | TGI (KM20L2 colon) | TGI (RXF-631 renal) | further results |
| --- | --- | --- | --- | --- | --- | --- | --- | --- | --- |
| Oc1ccccc1C=NCc1ccco1 | > 100 µM | > 100 µM | – | > 100 µM | > 100 µM | > 100 µM | > 100 µM | > 100 µM | – |
| N#Cc1c(NN)nc(NN)c(C#N)c1-c1ccccc1 | > 100 µM | > 100 µM | > 100 µM | > 100 µM | > 100 µM | > 100 µM | > 100 µM | > 100 µM | – |
| N/C(=C\c1ccc(OCc2ccccc2)c(OCc2ccccc2)c1[N+](=O)[O-])C(=O)O | > 100 µM | > 100 µM | > 100 µM | > 100 µM | – | > 100 µM | > 100 µM | – | – |
| Cn1c(=O)nc2n(-c3cccc(Br)c3)c3ccccc3nc-2c1=O | 29.1 µM | 19.4 µM | 14.7 µM | 33.3 µM | 15.8 µM | 3.03 µM | 6.97 µM | – | – |
| CCCCCCCCCCCCCC(=O)CC(=O)c1c(O)cccc1O | > 100 µM | > 100 µM | 41.1 µM | 75.5 µM | 51.2 µM | > 100 µM | > 100 µM | – | – |
| Nc1ncnc2c1nc(Cl)n2C1OC2COP(=O)(O)OC2C1O (centres undefined) | > 194 µM | > 300 µM | > 222 µM | > 300 µM | – | > 300 µM | > 300 µM | – | TGI (SN12K1 renal): > 300 µM; TGI (P388 leukemia): > 300 µM; TGI (MDA-N): > 300 µM |
| CCC/C(=N/NC(=O)C(N)=O)C(CC)C(=O)CCC(=O)N(Cc1ccccc1)Cc1ccccc1 (centres undefined) | – | > 100 µM | > 100 µM | > 100 µM | > 100 µM | > 100 µM | > 100 µM | > 100 µM | – |
| O=c1cc2ccccc2nn1Cc1cccc(Cl)c1 | > 100 µM | > 100 µM | > 100 µM | > 100 µM | 94.5 µM | > 100 µM | > 100 µM | > 100 µM | – |
| CC1(CO)OC(n2cc(C(=O)NC(=O)OCc3ccccc3)c(=O)[nH]c2=O)CC1O (centres undefined) | > 100 µM | > 100 µM | > 100 µM | – | > 100 µM | > 100 µM | > 100 µM | > 100 µM | – |
| CC(=O)[CH-]C(=O)c1ccccc1.CC(=O)[CH-]C(=O)c1ccccc1.CC1(C)C2CCC1(C)C([O-])C2.CC1(C)C2CCC1(C)C([O-])C2.[Ti+4] | > 100 µM | > 100 µM | – | – | – | > 100 µM | > 100 µM | – | GI50 (DLD-1 colon): 29.2 µM; GI50 (HOP-18 NSCLC): 36.6 µM; GI50 (KM20L2 colon): 60 µM; GI50 (M19-MEL melanoma): 24.4 µM |
| Cc1ccccc1C(=O)c1ccccc1O | > 100 µM | > 100 µM | > 100 µM | > 100 µM | > 100 µM | > 100 µM | > 100 µM | > 100 µM | – |
| COC(=O)N1CCc2c(nc(N(C)CCO)[nH]c2=O)C1 | > 100 µM | > 100 µM | > 100 µM | > 100 µM | > 100 µM | > 100 µM | > 100 µM | – | – |
| CN(C)c1ccc([O][Bi]([Cl])[Cl])cc1 | > 100 µM | > 100 µM | > 100 µM | > 100 µM | > 100 µM | > 100 µM | > 100 µM | > 100 µM | GI50 (DLD-1 colon): > 100 µM; GI50 (HOP-18 NSCLC): > 100 µM; GI50 (DMS 273 small cell lung): > 100 µM; GI50 (KM20L2 colon): > 100 µM; GI50 (RXF-631 renal): 30.7 µM; GI50 (SNB-78 CNS): > 100 µM; GI50 (XF 498 CNS): 80.6 µM; GI50 (M19-MEL melanoma): > 100 µM |
| COC(=O)/C([Se]c1c(C)cc(C)cc1C)=C(\[Se]c1c(C)cc(C)cc1C)C(=O)OC | > 100 µM | > 100 µM | > 100 µM | > 100 µM | – | > 100 µM | > 100 µM | > 100 µM | – |
| O=S1CCS(=O)CCS(=O)CC1 (centres undefined) | – | – | – | – | – | – | – | – | TGI (MDA-N): > 100 µM |
| COC(=O)C(=O)OC1(C(C)=O)CC2(c3ccccc3)OC1(c1ccccc1)c1ccccc12 (centres undefined) | 36.4 µM | 84.5 µM | 30 µM | 65 µM | 30.5 µM | 31.1 µM | 30.7 µM | > 100 µM | – |
| Clc1ccc2c(c1)C1C(CO2)C(c2ccccc2)=NN1c1ccccc1 (centres undefined) | > 100 µM | 50.8 µM | 88.7 µM | > 100 µM | 59 µM | > 100 µM | > 100 µM | – | – |
